Columns and labels:
[1] = target: T1, RORγ-LBD (Homo sapiens, UniProt P51449); assay: RORγ-Ligand Binding Domain (LBD) TR-FRET Assay; format: biochemical; settings: for TR-FRET Assay Max Response: maximum response;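 for TR-FRET Assay Max Response: 665/615 nm signal ratio set to 100 without ursolic acid or test compound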
T1 construct: made in house; host or cells: SF9 cells (baculovirus); used as diluted lysate
T1 sequence (P51449 269-508 limits assumed): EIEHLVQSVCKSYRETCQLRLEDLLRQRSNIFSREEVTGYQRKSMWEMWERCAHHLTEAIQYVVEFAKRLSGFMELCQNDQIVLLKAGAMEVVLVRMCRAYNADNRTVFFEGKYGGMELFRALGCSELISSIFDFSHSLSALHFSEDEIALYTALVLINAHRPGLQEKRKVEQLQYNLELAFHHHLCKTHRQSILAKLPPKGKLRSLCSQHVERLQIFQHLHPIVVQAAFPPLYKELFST
Summary of the method: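 His-tagged RORγ-LBD from SF9 baculovirus lysate, ~3 nM final, in 50 mM Tris pH 7.0, 50 mM KCl, 1 mM EDTA, 0.1 mM DTT, 0.01% BSA. Biotinylated SRC1 LXXLL peptide at 200 nM final with 2 μM ursolic acid; TR-FRET read-out, 1% DMSO final.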

[2] = target: T2, Gal4-RORγ-LBD (Homo sapiens, UniProt P51449); assay: Gal4-RORγ Luciferase Reporter Assay in HEK-293T Cells; format: cell-based; settings: HEK-293 cells, luciferase reporter; for Gal4-RORγ Assay Max Response: maximum response
T2 construct: expressed in transfected cells
T2 sequence (P51449 269-508 limits assumed): T1 sequence (P51449 269-508 limits assumed)
Summary of the method: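 HEK-293 cells were co-transfected with Gal4-RORγ-LBD and a Gal4-luciferase reporter, then exposed overnight at 37 °C to compounds with […] ursolic acid present (0.2% DMSO). Luminescence was read with One-Glo after 10 min at RT, untreated signal was set as 100, and Max Response was taken as the upper plateau of a 4-parameter logistic fit.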

EC50 ([1]; RORγ-LBD TR-FRET) | EC50 ([2]; with ursolic acid) | EC50 ([1]; RORγ-LBD TR-FRET assay) | EC50 ([2]; in presence of ursolic acid) | Compound | TR-FRET Assay Max Response ([1]; RORγ-LBD TR-FRET assay) | Gal4-RORγ Assay Max Response ([2]; in presence of ursolic acid)
< 0.5 µM | < 0.5 µM |  |  | O=C(O)CC[C@H]1CN(S(=O)(=O)c2cccc(C(F)(F)F)c2)c2cc(C=C3CCC(F)(F)CC3)ccc2O1 [Example 95L, (S)-3-(6-((4,4-difluorocyclo-hexylidene)methyl)-4-((3-(trifluoromethyl)phenyl)sulfonyl)-3,4-dihydro-2H-benzo[b][1,4]oxazin-2-yl)propanoic acid] |  | 
< 0.5 µM | < 0.5 µM |  |  | CCOc1nn(CC)cc1S(=O)(=O)N1C[C@H](CCC(=O)O)Oc2ccc(/C=C/c3c(Cl)cccc3C(F)F)cc21 [Example 89EH, (S,E)-3-(6-(2-chloro-6-(difluoromethyl)styryl)-4-((3-ethoxy-1-ethyl-1H-pyrazol-4-yl)sulfonyl)-3,4-dihydro-2H-benzo[b][1,4]oxazin-2-yl)propanoic acid] |  | 
 |  | < 0.5 µM | > 10 µM | COc1cc(S(=O)(=O)C2CC(CC(C)(C)C(=O)O)Oc3ccc(OCc4c(F)cccc4Cl)cc32)ccc1F (stereo not drawn) [Example 186C, 3-(6-((2-chloro-6-fluorobenzyl)oxy)-4-((4-fluoro-3-methoxyphenyl)sulfonyl)chroman-2-yl)-2,2-dimethylpropanoic acid] | *** (a value in the range of greater than 150 to 200) | ** (a value in the range of greater than 90 to 150)
5 to 10 µM | > 10 µM |  |  | CCOc1nn(CC)cc1S(=O)(=O)N1C[C@H](CCC(=O)OC)Oc2ccc(/C=C/c3nccnc3Cl)cc21 [Example 89N, (S,E)-methyl 3-(6-(2-(3-chloropyrazin-2-yl)vinyl)-4-((3-ethoxy-1-ethyl-1H-pyrazol-4-yl)sulfonyl)-3,4-dihydro-2H-benzo[b][1,4]oxazin-2-yl)propanoate] |  | 
< 0.5 µM | 0.5 to 5 µM |  |  | O=C(O)CC[C@H]1CN(S(=O)(=O)c2cccc(C(F)(F)F)c2)c2cc(C=C3CCCCC3)ccc2O1 [Example 91, (S)-3-(6-(Cyclohexylidenemethyl)-4-((3-(trifluoromethyl)phenyl)sulfonyl)-3,4-dihydro-2H-benzo[b][1,4]oxazin-2-yl)propanoic acid] |  | 
 |  | < 0.5 µM | > 10 µM | COC(=O)C(C)(C)C[C@@H]1Cc2ccc(/C=C/c3c(F)cccc3Cl)cc2N(S(=O)(=O)c2ccc(F)c(OC)c2)C1 [Example 153, Methyl (S,E)-3-(7-(2-chloro-6-fluorostyryl)-1-((4-fluoro-3-methoxyphenyl)sulfonyl)-1,2,3,4-tetrahydroquinolin-3-yl)-2,2-dimethylpropanoate] | *** (a value in the range of greater than 150 to 200) | * (a value in the range of 30 to 90)
< 0.5 µM | 0.5 to 5 µM |  |  | CCOc1ncc(C(F)(F)F)cc1S(=O)(=O)N1C[C@H](CCC(=O)OC)Oc2ccc(/C=C/c3c(F)cccc3Cl)cc21 [Example 89DV, methyl (S,E)-3-(6-(2-chloro-6-fluorostyryl)-4-((2-ethoxy-5-(trifluoromethyl)pyridin-3-yl)sulfonyl)-3,4-dihydro-2H-benzo[b][1,4]oxazin-2-yl)propanoate] |  | 
< 0.5 µM | 0.5 to 5 µM |  |  | COC(=O)CC[C@H]1CN(S(=O)(=O)c2cccc(OC(F)F)c2)c2c(ccc(/C=C(\C)c3c(F)cccc3Cl)c2C)O1 [Example 59, Methyl (S,E)-3-(6-(2-(2-chloro-6-fluorophenyl)prop-1-en-1-yl)-4-((3-(difluoromethoxy)phenyl)sulfonyl)-5-methyl-3,4-dihydro-2H-benzo[b][1,4]oxazin-2-yl)propanoate] |  | 
< 0.5 µM | 0.5 to 5 µM |  |  | O=C(O)CC[C@H]1CN(S(=O)(=O)c2cc(Cl)cnc2OCCO)c2cc(/C=C/c3c(F)cccc3Cl)ccc2O1 [Example 89AL, (S,E)-3-(4-((5-chloro-2-(2-hydroxyethoxy)pyridin-3-yl)sulfonyl)-6-(2-chloro-6-fluorostyryl)-3,4-dihydro-2H-benzo[b][1,4]oxazin-2-yl)propanoic acid] |  | 
< 0.5 µM | > 10 µM |  |  | COC(=O)CC[C@H]1CN(S(=O)(=O)c2cccc(C(F)(F)F)c2)c2c(ccc(/C=C(\C)c3c(F)cccc3Cl)c2C)O1 [Example 57, Methyl (S,E)-3-(6-(2-(2-chloro-6-fluorophenyl)prop-1-en-1-yl)-5-methyl-4-((3-(trifluoromethyl)phenyl)sulfonyl)-3,4-dihydro-2H-benzo[b][1,4]oxazin-2-yl)propanoate] |  | 
 |  | < 0.5 µM | 0.5 to 5 µM | C/C(=C\c1ccc2c(c1)N(S(=O)(=O)c1cccc(C(F)(F)F)c1)C[C@H](CCCN1CCCC1)O2)c1c(F)cccc1Cl [Example 117, (S,E)-6-(2-(2-Chloro-6-fluorophenyl)prop-1-en-1-yl)-2-(3-(pyrrolidin-1-yl)propyl)-4-((3-(trifluoromethyl)phenyl)sulfonyl)-3,4-dihydro-2H-benzo[b][1,4]oxazine] | *** (a value in the range of greater than 150 to 200) | ** (a value in the range of greater than 90 to 150)
< 0.5 µM | 0.5 to 5 µM |  |  | CCOc1ncc(C(F)(F)F)cc1S(=O)(=O)N1C[C@H](CCC(=O)OC)Oc2ccc(/C=C(\C)c3c(Cl)cccc3C(F)(F)F)cc21 [Example 76, Methyl (S,E)-3-(6-(2-(2-chloro-6-(trifluoromethyl)phenyl)prop-1-en-1-yl)-4-((2-ethoxy-5-(trifluoromethyl)pyridin-3-yl)sulfonyl)-3,4-dihydro-2H-benzo[b][1,4]oxazin-2-yl)propanoate] |  | 
 |  | < 0.5 µM | < 0.5 µM | C/C(=C\c1ccc2c(c1)N(S(=O)(=O)c1cccc(C(F)(F)F)c1)C[C@H](CO)O2)c1c(F)cccc1Cl [Example 125, (R,E)-(6-(2-(2-Chloro-6-fluorophenyl)prop-1-en-1-yl)-4-((3-(trifluoromethyl)phenyl)sulfonyl)-3,4-dihydro-2-h-benzo[b][1,4]oxazin-2-yl)methanol] | *** (a value in the range of greater than 150 to 200) | ** (a value in the range of greater than 90 to 150)
 |  | < 0.5 µM | 0.5 to 5 µM | C/C(=C\c1ccc2c(c1)N(S(=O)(=O)c1cccc(C(F)(F)F)c1)CCC2(F)F)c1c(F)cccc1Cl [Example 189, (E)-7-(2-(2-Chloro-6-fluorophenyl)prop-1-en-1-yl)-4,4-difluoro-1-((3-(trifluoromethyl)phenyl)sulfonyl)-1,2,3,4-tetrahydroquinoline] | *** (a value in the range of greater than 150 to 200) | ** (a value in the range of greater than 90 to 150)
> 10 µM | > 10 µM |  |  | Cn1ncnc1/C=C/c1ccc2c(c1)N(S(=O)(=O)c1cccc(C(F)(F)F)c1)C[C@H](CCC(=O)O)O2 [Example 89CJ, (S,E)-3-(6-(2-(1-methyl-1H-1,2,4-triazol-5-yl)vinyl)-4-((3-(trifluoromethyl)phenyl)sulfonyl)-3,4-dihydro-2H-benzo[b][1,4]-oxazin-2-yl)propanoic acid] |  | 
< 0.5 µM | 0.5 to 5 µM |  |  | CCc1ccccc1/C=C/c1ccc2c(c1)N(S(=O)(=O)c1cccc(OC(F)F)c1)C[C@H](CCC(=O)OC)O2 [Example 89AX, (S,E)-methyl 3-(4-((3-(difluoromethoxy)phenyl)sulfonyl)-6-(2-ethylstyryl)-3,4-dihydro-2H-benzo[b][1,4]oxazin-2-yl)propanoate] |  | 

Source: patent US9896441B2 (Lycera Corporation, priority 2014, dated 2018)
